Activity calls are given as the source filed them.
What was measured:
[1] = molecular target: T1, Mannose-6-phosphate isomerase (Homo sapiens, UniProt P34949); assay: inhibitors of human PMI, primary screen, biochemical, fluorescence intensity, coupled assay (AID 1209)
T1 sequence (P34949 whole entry): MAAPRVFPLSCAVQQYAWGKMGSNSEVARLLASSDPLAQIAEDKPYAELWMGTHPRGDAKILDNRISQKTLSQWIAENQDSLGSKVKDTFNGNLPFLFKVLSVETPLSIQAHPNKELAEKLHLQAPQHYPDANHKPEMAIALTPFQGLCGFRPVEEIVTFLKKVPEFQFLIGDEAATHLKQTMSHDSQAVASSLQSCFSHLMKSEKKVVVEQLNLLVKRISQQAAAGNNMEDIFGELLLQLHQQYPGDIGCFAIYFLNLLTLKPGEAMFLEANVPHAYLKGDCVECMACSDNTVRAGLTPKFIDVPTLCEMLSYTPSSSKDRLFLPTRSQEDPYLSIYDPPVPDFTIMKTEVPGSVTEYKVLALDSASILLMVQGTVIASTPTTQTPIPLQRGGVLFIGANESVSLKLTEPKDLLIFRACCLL

[2] = molecular target: T2, Heat shock factor protein 1 (Mus musculus, UniProt P38532); assay: HSF1 potentiators in luciferase reporter cells, confirmation, cell-based, NIH3T3, luminescence, dose retest (AID 435004); format: functional;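 further: stress induced by proteasome inhibitor MG132 added 30 min after compound; luciferase reporter driven by HSF1 response element in NIH3T3 cells; actives raise luminescence as potentiators of the MG132 stress response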
T2 sequence (P38532 whole entry): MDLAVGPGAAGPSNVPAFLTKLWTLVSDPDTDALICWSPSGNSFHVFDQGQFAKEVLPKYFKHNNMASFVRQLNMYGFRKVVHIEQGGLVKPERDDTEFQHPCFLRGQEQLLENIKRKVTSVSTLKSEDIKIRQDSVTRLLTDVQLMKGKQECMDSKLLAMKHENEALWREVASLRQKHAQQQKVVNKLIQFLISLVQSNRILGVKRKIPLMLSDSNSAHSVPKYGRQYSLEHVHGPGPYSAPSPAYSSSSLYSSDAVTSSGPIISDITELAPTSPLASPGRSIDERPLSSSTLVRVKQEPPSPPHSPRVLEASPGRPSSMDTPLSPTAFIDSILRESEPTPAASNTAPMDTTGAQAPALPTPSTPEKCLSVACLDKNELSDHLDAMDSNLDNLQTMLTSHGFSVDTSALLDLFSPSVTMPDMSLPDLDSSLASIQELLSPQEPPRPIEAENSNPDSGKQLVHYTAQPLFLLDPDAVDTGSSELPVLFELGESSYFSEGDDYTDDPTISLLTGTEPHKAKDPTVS

[3] = A549 cell cytotoxicity, dose response, cytotoxicity control, plate reader, cherry-pick, antagonist series (AID 743412); format: functional, cell-based
[4] = LGR2 antagonists, dose response, cell-based, HEK293, CRE-luciferase reporter, cherry pick, set 2 (AID 743343); format: functional;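 further: transfected cells were stimulated with diluted bursicon conditioned medium after compound addition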
[5] = HEK293 cell cytotoxicity, dose response, cytotoxicity control, plate reader, cherry-picked samples (AID 743446); format: functional, cell-based
Estrogen receptor = molecular target: T3, Estrogen receptor (Homo sapiens, UniProt P03372);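 further: potency for inhibiting coactivator peptide recruitment to the receptor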
T3 sequence (P03372 whole entry): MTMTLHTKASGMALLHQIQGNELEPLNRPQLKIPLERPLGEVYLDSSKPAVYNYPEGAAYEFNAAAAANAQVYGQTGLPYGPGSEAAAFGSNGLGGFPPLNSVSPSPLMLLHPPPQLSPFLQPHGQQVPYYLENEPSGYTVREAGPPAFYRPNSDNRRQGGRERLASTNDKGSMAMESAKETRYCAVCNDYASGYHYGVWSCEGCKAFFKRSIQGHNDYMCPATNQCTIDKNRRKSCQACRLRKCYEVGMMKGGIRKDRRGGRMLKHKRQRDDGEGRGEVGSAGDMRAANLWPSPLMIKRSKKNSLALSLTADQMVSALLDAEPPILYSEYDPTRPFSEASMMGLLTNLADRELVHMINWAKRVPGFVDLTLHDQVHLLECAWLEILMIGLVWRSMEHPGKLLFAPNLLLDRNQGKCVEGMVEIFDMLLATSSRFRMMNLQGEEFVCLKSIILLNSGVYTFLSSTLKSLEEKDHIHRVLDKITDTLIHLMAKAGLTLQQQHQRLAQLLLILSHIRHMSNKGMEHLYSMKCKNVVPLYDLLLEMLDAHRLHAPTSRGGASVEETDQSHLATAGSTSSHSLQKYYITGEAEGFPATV

Estrogen receptor beta [6] = molecular target: T4, Estrogen receptor beta (Homo sapiens, UniProt Q92731);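 further: recombinant ER-beta bound to coactivator SRC1 peptide in presence of estradiol agonist; inhibitors block coactivator peptide binding and lower the FRET signal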
T4 sequence (Q92731 whole entry): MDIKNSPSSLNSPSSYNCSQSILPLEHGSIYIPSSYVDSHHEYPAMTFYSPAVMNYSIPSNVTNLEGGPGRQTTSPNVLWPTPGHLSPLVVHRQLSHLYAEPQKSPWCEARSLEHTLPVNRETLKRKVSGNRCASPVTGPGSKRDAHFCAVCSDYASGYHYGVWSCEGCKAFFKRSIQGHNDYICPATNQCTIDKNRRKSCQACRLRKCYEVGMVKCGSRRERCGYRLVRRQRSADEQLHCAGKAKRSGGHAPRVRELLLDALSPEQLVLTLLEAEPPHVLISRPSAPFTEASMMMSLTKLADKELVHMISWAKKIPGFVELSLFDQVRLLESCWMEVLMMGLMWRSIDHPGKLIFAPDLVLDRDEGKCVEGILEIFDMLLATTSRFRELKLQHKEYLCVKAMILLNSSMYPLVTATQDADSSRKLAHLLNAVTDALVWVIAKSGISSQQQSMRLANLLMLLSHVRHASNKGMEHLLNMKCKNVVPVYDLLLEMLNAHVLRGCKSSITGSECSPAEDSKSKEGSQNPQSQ

Estrogen receptor beta [7] = molecular target: T4, Estrogen receptor beta; assay: ERβ–SRC-3 coactivator interaction inhibitors, confirmation, orthogonal assay, biochemical, ELISA, streptavidin-HRP readout (AID 1060)
[8] = molecular target: T5, Carboxy-terminal domain RNA polymerase II polypeptide A small phosphatase 1 (Homo sapiens, UniProt Q9GZU7); assay: inhibitors of CTDSP1, concentration-response testing, biochemical assay, absorbance-based, actives from ultra-high-throughput screening (AID 540297); format: functional
T5 sequence (Q9GZU7 whole entry): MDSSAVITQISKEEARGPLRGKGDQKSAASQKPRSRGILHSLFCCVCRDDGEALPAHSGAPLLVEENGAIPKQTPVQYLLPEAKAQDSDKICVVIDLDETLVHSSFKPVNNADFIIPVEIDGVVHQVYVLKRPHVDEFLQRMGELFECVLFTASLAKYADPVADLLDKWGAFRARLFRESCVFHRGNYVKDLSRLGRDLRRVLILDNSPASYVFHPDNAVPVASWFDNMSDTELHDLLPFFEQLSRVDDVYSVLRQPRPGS

Prothrombin = Prothrombin (Homo sapiens, UniProt P00734); assay: Thrombin 1536 HTS Dose Response Confirmation. [Related pubchem assays: 1046 (Thrombin 1536 HTS; hits were confirmed in this assay)]; format: functional
[9] = inhibitors of Vif binding to APOBEC3G peptide, primary screen, biochemical, TR-FRET, GST-Vif 1-94, biotin-A3G peptide, dose response retest (AID 1117319); format: functional;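 further: TR-FRET signal of purified GST-Vif binding a biotinylated A3G peptide; inhibitors lower the FRET signal by blocking Vif and A3G binding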
[10] = molecular target: Induced myeloid leukemia cell differentiation protein Mcl-1 (Homo sapiens, UniProt Q07820); format: functional
Induced myeloid leukemia cell differentiation protein Mcl-1, sequence (Q07820 whole entry): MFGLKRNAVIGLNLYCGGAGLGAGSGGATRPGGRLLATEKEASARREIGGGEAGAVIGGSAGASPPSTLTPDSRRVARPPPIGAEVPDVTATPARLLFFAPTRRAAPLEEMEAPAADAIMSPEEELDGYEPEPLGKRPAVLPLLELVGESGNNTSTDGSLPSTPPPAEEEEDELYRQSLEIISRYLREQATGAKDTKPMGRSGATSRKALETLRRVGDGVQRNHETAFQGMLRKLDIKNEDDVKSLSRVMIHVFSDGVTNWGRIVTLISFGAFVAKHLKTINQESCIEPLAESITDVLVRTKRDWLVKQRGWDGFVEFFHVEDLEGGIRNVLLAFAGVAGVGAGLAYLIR

Protein skinhead-1 = molecular target: T6, Protein skinhead-1 (Caenorhabditis elegans, UniProt P34707); format: functional
T6 sequence (P34707 whole entry): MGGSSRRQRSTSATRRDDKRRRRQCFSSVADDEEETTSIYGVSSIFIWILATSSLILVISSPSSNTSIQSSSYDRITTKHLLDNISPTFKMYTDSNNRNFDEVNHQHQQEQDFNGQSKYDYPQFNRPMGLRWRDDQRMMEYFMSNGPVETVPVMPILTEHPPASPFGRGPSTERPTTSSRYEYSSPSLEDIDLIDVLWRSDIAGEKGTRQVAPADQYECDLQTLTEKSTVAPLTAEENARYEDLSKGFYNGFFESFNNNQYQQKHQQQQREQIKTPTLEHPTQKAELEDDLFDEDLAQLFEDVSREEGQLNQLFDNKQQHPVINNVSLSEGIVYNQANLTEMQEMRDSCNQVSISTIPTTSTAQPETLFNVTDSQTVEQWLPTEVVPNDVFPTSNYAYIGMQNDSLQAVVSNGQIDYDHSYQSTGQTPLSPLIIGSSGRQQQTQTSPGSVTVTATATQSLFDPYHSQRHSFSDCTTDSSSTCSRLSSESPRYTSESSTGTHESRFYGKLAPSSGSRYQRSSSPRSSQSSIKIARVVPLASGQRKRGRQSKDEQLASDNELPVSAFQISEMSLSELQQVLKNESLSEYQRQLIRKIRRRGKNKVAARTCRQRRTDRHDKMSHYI

[11] = MC4R antagonists, dose response, counter-screen for LGR2 antagonist project, cell-based, plate reader, cherry pick (AID 743444); format: functional;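 further: transfected HEK 293 cells stimulated with alpha-MSH peptide; potency of inhibitors of the alpha-MSH evoked signal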
[12] = molecular target: Luciferin 4-monooxygenase (Photinus pyralis, UniProt P08659); assay: firefly luciferase enzyme inhibitors, dose response, biochemical, luminescence (AID 1891)
Luciferin 4-monooxygenase, sequence (P08659 whole entry): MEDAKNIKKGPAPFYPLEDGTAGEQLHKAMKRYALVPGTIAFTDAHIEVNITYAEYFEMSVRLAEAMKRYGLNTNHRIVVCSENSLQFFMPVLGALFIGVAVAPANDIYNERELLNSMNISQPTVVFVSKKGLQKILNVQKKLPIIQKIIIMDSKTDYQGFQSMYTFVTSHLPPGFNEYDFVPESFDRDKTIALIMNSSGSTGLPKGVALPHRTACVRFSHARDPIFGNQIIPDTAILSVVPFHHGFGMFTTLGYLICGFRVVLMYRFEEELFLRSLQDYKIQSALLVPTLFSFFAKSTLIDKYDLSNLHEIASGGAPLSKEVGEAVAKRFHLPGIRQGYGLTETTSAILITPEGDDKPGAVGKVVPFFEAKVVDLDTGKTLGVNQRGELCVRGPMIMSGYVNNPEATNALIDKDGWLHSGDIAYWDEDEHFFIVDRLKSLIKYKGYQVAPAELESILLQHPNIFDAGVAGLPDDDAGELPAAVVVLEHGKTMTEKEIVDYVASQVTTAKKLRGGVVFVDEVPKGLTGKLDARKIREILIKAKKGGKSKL

[13] = Luminescence Cell-Based Dose Confirmation HTS to Identify Inhibitors of Platelet Dense Granule Release. [Related pubchem assays: 1663 (Primary HTS), 1678 (Summary of Project)]; format: functional
[14] = inhibitors of intracellular T. cruzi replication, confirmation, NIH3T3 host cells, beta-gal luminescence (AID 2044); format: functional, cell-based;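 further: intracellular parasites grown in NIH/3T3 mouse fibroblasts as host cells; luminescent beta-galactosidase reporter signal from transgenic T. cruzi replicating inside host cells; inhibitors lower the luminescence signal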
[15] = cytotoxicity toward NIH3T3 fibroblasts, dose response, counter-screen, cell-based, ATP luminescence, mouse fibroblasts (AID 2010); format: functional;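 further: cells exposed to compound for about 90 hours before reading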
[16] = Luminescence Cell-Based Dose Retest to Confirm Inhibitors of Cancer Stem Cells. [Related pubchem assays (depositor defined):AID2717, AID2721]; format: functional; settings: Homo sapiens
[17] = molecular target: T7, Small ubiquitin-related modifier 1 (Homo sapiens, UniProt P63165); assay: inhibitors of SUMO1 peptide binding, dose response, biochemical, fluorescence polarization, uHTS hits (AID 624382); format: functional; settings: read-out: IC50_Mean
T7 sequence (P63165 whole entry): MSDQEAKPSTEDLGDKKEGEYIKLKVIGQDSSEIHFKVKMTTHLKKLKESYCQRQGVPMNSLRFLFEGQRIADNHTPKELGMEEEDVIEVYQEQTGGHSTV

[18] = molecular target: T7, Small ubiquitin-related modifier 1; assay: inhibitors of SUMO1 partner interactions, dose response, biochemical, FRET (AID 624383); format: functional; settings: read-out: IC50_Mean
Kallikrein-7 = Kallikrein-7 (Homo sapiens, UniProt P49862); assay: Fluorescence Intensity-based biochemical primary high throughput dose response assay to identify activators of kallikrein-7 (K7) zymogen.
Kallikrein-7, sequence (P49862 whole entry): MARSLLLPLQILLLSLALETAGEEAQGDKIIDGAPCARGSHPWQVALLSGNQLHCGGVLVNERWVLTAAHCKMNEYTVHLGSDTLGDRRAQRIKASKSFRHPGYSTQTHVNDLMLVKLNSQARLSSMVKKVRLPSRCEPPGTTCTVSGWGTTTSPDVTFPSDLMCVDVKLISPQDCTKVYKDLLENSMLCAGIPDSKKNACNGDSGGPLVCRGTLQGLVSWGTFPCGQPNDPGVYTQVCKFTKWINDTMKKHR

H4 = assay: Luminescence Cell-Based Dose Response HTS to Identify Activators of 5'UTR Stem-Loop Driven Prion Protein mRNA Translation in H4 Neuroglioblastoma Cells. [Related pubchem assays: 1829 (Project Summary), 1814 (Primary HTS)]; format: functional; settings: Homo sapiens
[19] = molecular target: T8, Low molecular weight phosphotyrosine protein phosphatase (Homo sapiens, UniProt P24666); format: functional; settings: read-out: IC50_Mean
T8 sequence (P24666 whole entry): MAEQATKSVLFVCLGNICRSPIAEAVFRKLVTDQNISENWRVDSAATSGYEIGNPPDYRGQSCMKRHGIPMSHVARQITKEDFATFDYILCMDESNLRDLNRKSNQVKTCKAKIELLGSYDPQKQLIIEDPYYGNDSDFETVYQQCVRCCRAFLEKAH

[20] = molecular target: T8, Low molecular weight phosphotyrosine protein phosphatase; format: functional; settings: read-out: IC50_Mean; remark: listed apart in the source
[21] = P. falciparum 3D7-ScDHODH growth inhibitors, dose response, SYBR Green, dry powder samples (AID 1159570); format: functional, cell-based;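 further: parasite growth measured after 72 hours of compound exposure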
[22] = P. falciparum Dd2 growth inhibitors, dose response, SYBR Green, cherry-picked samples (AID 1159567); format: functional, cell-based
[23] = P. falciparum Dd2 growth inhibitors, dose response, SYBR Green, dry powder samples (AID 1159566); format: functional, cell-based;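 further: potency for growth inhibition with lower SYBR green DNA signal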
[24] = P. falciparum ATP4 D1247Y mutant growth inhibitors, dose response, NITD609-resistant line, SYBR Green, dry powder (AID 1159571); format: functional, cell-based;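 further: parasites synchronized at ring stage by sorbitol before testing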

CC1=NN2C(=N)/C(=C\c3ccc(SCc4ccccc4)o3)C(=O)N=C2S1
IC50 [1]: > 50 µM (not active)

COc1cc2c(cc1OC)CN(c1ccc([N+](=O)[O-])c(C(F)(F)F)c1)CC2
EC50 [2]: 43.1 µM (active)
AC50 [3]: > 52 µM (inactive)
AC50 [4]: 29.6 µM (active)
AC50 [5]: > 52 µM (inactive)

CC1CCc2c(sc(NC(=O)c3ccc(Cn4cc([N+](=O)[O-])cn4)o3)c2C#N)C1 (configuration not stated)
IC50 (Estrogen receptor): 8.35 µM (active)
IC50 (Estrogen receptor beta [6]): 2.32 µM (active)
IC50 (Estrogen receptor beta [7]): 11.1 µM (not active)
IC50 [8]: 4.29 µM (active)

Cc1ccc(C)n1-c1ccc(-c2nnco2)cc1
IC50 (Prothrombin): > 50 µM (not active)

CN1C(=O)CC(N2CCN(C(=O)c3ccccc3)CC2)C1=O (configuration not stated)
IC50 [9]: > 100 µM (active)

Cc1cc(=O)[nH]c(SCC(=O)NCC2CCCO2)n1 (configuration not stated)
IC50 (Prothrombin): > 50 µM (not active)

O=C1CC(N2CCN(S(=O)(=O)c3ccccc3)CC2)C(=O)N1c1ccccc1 (configuration not stated)
IC50 [10]: 9.4 µM (not active)

C=CCn1c(COc2ccccc2F)nnc1SCC(=O)NC(=O)NCc1ccco1
IC50 (Estrogen receptor beta [6]): 3.27 µM (active)
IC50 (Estrogen receptor beta [7]): > 50 µM (not active)
IC50 [8]: 12.2 µM (active)

Clc1ccc(-c2cc(-c3ccccn3)on2)c(Cl)c1
IC50 (Protein skinhead-1): > 100 µM (inactive)
AC50 [3]: > 52 µM (inactive)
AC50 [4]: 3.73 µM (active)
AC50 [11]: 7.08 µM (active)
AC50 [5]: > 52 µM (inactive)

CCOC(=O)CSc1nnc(CNC(=O)c2ccc(S(=O)(=O)N3CCCC3)cc2)n1C
IC50 (Prothrombin): > 50 µM (not active)

Cc1ccc(S(=O)(=O)N2CCN(Cc3nc(O)c4c(C)c(C)sc4n3)CC2)cc1
IC50 [9]: > 100 µM (active)

O=C(Nc1ccc2c(c1)OCO2)c1cc(-c2ccc(O)cc2)on1
EC50 [12]: > 112 µM (not active)
EC50 [13]: > 112 µM (not active)
EC50 [14]: < 0.1 µM (active)
EC50 [15]: 6.74 µM (active)
AC50 [16]: 0.356 µM (active)
IC50 [17]: > 66.6 µM (inactive)
IC50 [18]: 11.5 µM (active)
EC50 (Kallikrein-7): 62.9 µM (inactive)
EC50 (cells): > 10 µM (not active)

O=c1c(Cl)c(N/N=C/c2ccc(Cl)cc2)cnn1-c1ccccc1
EC50 (H4): > 120 µM (not active)
IC50 [10]: 1.93 µM (active)
IC50 [19]: > 80 µM (inactive)
IC50 [20]: 35 µM (inactive)

COCC#Cc1ccc(CC[C@H]2O[C@H]3CC[C@H](CO)O[C@H]3C[C@@H]2n2cc(C3CC3)nn2)cc1
AC50 [21]: 3.37 µM (active)
AC50 [22]: 2.33 µM (active)
AC50 [23]: 2.15 µM (active)
AC50 [24]: 3.76 µM (active)

OC[C@H]1Nc2ccc(C#Cc3cccnc3)cc2[C@H]2NCC[C@H]21
AC50 [21]: 8.84 µM (active)
AC50 [22]: 1.08 µM (active)
AC50 [23]: 7.59 µM (active)
AC50 [24]: 11.2 µM (active)

CC[n+]1ccccc1/C=C1\Sc2ccc(C)cc2N1C
EC50 [14]: < 0.1 µM (active)
EC50 [15]: > 60 µM (not active)
EC50 (cells): 0.022 µM (active)
